According to patent publication US20220175777A1, “Inhibitors of Multidrug Resistance Transporter P-Glycoprotein” (Southern Methodist University, priority 2014, published 2022):

Legend:
[1] = target: T1, Cysteineless Mouse MDR3 P-glycoprotein (Mus musculus, UniProt P21447, C1070A/C1121A/C1223A/C133A/C427A/C638A/C669A/C713A/C952A); conditions: ESR data of Brewer et al. (2014); cited from earlier work
T1 construct: made in house; host or cells: Pichia pastoris

DU145TXR [2] = experiment: Potentiation of 500 nM paclitaxel cytotoxicity (MTT); type: cell-based, human; conditions: for Effect on paclitaxel sensitivity: 50 nM-25 μM inhibitor with 500 nM paclitaxel
Method: FIGS. 4A and 4B show the in silico identified P-gp inhibitors potentiate the cytotoxic effects of paclitaxel in the MDR human prostate cancer cell line DU145TxR. […] Values represent the mean±SEM of at least two separate experiments performed in triplicate.
A range of experimental inhibitor concentrations was added in the presence of 500 nM paclitaxel and the cell viability was assessed using the MTT assay.
In order to compare the efficacy of inhibitors, the potentiation concentration of inhibitor resulting in 50% reduction in cell viability, PC50, in the presence of 500 nM paclitaxel was calculated from the data in FIG. 4A.

DU145TXR [3] = experiment: Dose dependent sensitization of MDR cell line to paclitaxel (MTT); type: cell-based, human
Method: FIGS. 6A to 6C show the dose dependent sensitization of MDR prostate cancer cell line DU145TxR. […] For reference, the DU145TxR (closed circle) and DU145 (open circle) incubated with paclitaxel only are also included. Values are mean±SEM from at least 2 separate experiments performed in triplicate wells. The data were normalized to the intrinsic toxicities as determined in studies from FIGS. 5A to 5C of each of the compounds for each of the corresponding concentrations.
Dose Dependent Sensitization of MDR Prostate Cancer Cell Line: To determine the degree to which the MDR prostate cancer cell line DU145TxR could be sensitized to paclitaxel the inventors determined cell survival at increasing concentrations of paclitaxel in the presence of three concentrations of P-gp inhibitors. FIGS. 6A, 6B and 6C show the survival of DU145TxR at increasing concentration of paclitaxel in the presence of 5 μM, 10 μM and 25 μM of the experimental compounds, respectively. The open circles represent the parental DU145 cell line in the presence of paclitaxel without addition of any inhibitor compound. The closed circles represent the survival of the multidrug resistant DU145TxR in the presence of paclitaxel alone. […] At that concentration over 10-fold increase in paclitaxel sensitivity in DU145TxR is observed compared to DU145TxR without P-gp inhibitors. Doubling the concentration of the compounds to 10 μM approximately doubled the DU145TxR sensitivity to paclitaxel.

HFL1 = experiment: Intrinsic toxicity, MTT survival; type: cell-based; conditions: Homo sapiens, 48 hours, ± standard error
Method: (§1) Percent survival determined by MTT assay calculated relative to cells treated with equal volume DMSO vehicle and represent the mean±SEM from 2-4 separate studies, each study performed in triplicate wells.
The intrinsic in vitro toxicities of identified compounds were evaluated to determine their potential therapeutic window. This was assessed in a noncancerous cell line (HFL1) and the human prostate cancer cell lines DU145 and the MDR sub-line DU145TxR. The potential toxicity of the compounds were assessed at concentrations that centered around 25 μM.

[4] = target: T1, Cysteineless Mouse MDR3 P-glycoprotein; experiment: ATP hydrolysis by purified P-glycoprotein, basal and verapamil-stimulated; type: biochemical; conditions: in the presence of verapamil
Text: The efficacy of molecules identified using in silico methods to function as potential inhibitors of P-glycoprotein was initially tested with regard to their capability to inhibit ATP hydrolysis by purified P-glycoprotein. For this purpose, a well-established activity assay for ATP hydrolyzing enzymes that uses the oxidation of NADH to NAD+ through coupling the reactions of pyruvate kinase and lactate dehydrogenase to the hydrolysis of ATP was adapted to medium throughput conditions on 96 well plates. […] In this set-up, the effects of potential small molecule inhibitors on the ATP hydrolysis activity of P-glycoprotein were tested in duplicate or triplicate and were repeated at least two times using different enzyme preparations.
The P-glycoprotein used in these assays was a close relative of the human P-glycoprotein that is found in mice. A mutant version of the mouse P-glycoprotein where all intrinsic cysteine amino acids had been replaced by alanine residues was recombinantly expressed in the yeast Pichia pastoris and used for these initial tests. […] Prior to testing the ATP-hydrolysis activity, P-glycoprotein was incubated with phosphatidyl choline for stabilization of the enzyme during the assay.
Different concentrations of the to-be-tested small molecules were added and pre-incubated at 37° C. The ATP hydrolysis reaction was then started by adding equal volume of double concentrated ATPase cocktail. The final ATP concentration in the reaction was 2 mM. The reaction was allowed to proceed for 20 minutes, the rate of ATP hydrolysis was calculated using the molar extinction coefficient of NADH, and the one-to-one relationship of ATP hydrolyzed and NADH oxidized.
Evaluation of mode of inhibition of P-glycoprotein by Group 1 and Group 2 variants of compound 29. To assess the mode of inhibition of P-gp by the novel variants of P-gp inhibitor 29, ATP hydrolysis by P-gp was evaluated in the presence or absence of the variants. […] Murine P-gp (MDR3) expressed in Pichia pastoris that had all naturally occurring cysteines replaced with alanine, was used^45, 46. It is widely assumed that the ATP hydrolytic rate of P-gp is stimulated in the presence of transport substrates when compared to ATP hydrolysis in the absence of transport substrates. Assays comparing these rates can therefore be useful not only in identifying inhibitors of P-gp catalyzed ATP hydrolysis, but also to potentially infer whether a compound might be a transport substrate if basal ATPase rates are stimulated by the addition of a compound.

A2780 = experiment: Hyper-sensitization of ovarian cancer cells to doxorubicin; type: cell-based; conditions: not chemotherapy resistant A2780
Text: Hyper-sensitization of cancers to chemotherapeutics. […] The sensitivity of normal, not chemotherapy resistant A2780 ovarian cancer cell lines to doxorubicin was increased by several orders of magnitude in these assays.

DU145TXR [5] = experiment: Intrinsic toxicity, MTT survival; type: cell-based, human; conditions: Homo sapiens; intrinsic toxicity, 48 hours, MTT; ± standard error
Method: as §1
(§2) The intrinsic in vitro toxicities of identified compounds were evaluated to determine their potential therapeutic window. This was assessed in a noncancerous cell line (HFL1) and the human prostate cancer cell lines DU145 and the MDR sub-line DU145TxR.

[6] = target: T1, Cysteineless Mouse MDR3 P-glycoprotein; experiment: SL-ATP binding to P-gp by ESR spectroscopy; conditions: 50 microM inhibitor compound
Text: Determination of the possible mode of ATP hydrolysis inhibition by the identified P-glycoprotein inhibitors. The mode of hydrolysis of ATP by P-glycoprotein was investigated by measuring the maximal binding stoichiometry and binding affinity of an analog of ATP, SL-ATP, and by Electron Spin Resonance (ESR) spectroscopy, similar to in both the presence and absence of the identified inhibitors.
The high-field signal of the freely mobile, unbound SL-ATP is compared and is used to calculate the amount of ATP-analog bound to P-glycoprotein. Binding of SL-ATP in the absence of any P-glycoprotein inhibitor saturated at about 2 mol of SL-nucleotide bounds per mol of P-glycoprotein.
FIGS. 2A-2D are plots showing the effects of P-glycoprotein ATP hydrolysis inhibitors on nucleotide binding. Between 30 and 50 microM Pgp were incubated with 50 microM inhibitor compound. Increasing amounts of SL-ATP were added. The ESR signal of the free SL-ATP in the presence of P-glycoprotein and inhibitor was compared to that in the absence of P-glycoprotein. The graphs represent at least 3 individual studies each using 3 to 5 different P-glycoprotein preparations.

DU145 = experiment: Intrinsic toxicity, MTT survival; type: cell-based; conditions: Homo sapiens, DU-145, 48 hours, ± standard error
Method: as §1, §2

DU145-TxR = experiment: Re-sensitization to Paclitaxel or Doxorubicin at 25 μM compound (MTT); type: cell-based, human; conditions: 48 hours
Method: FIGS. 3A-3B are plots that show an example of the re-sensitization of a multidrug resistant prostate cancer cell line to two different chemotherapeutics using the prostate cancer derived cell line, DU145 and the multidrug-resistant variant, DU145-TxR. […] Cell viability was measured by the MTT (3-(4,5-dimethylthiazol-2-yl)-2,5-diphenyl tetrazolium bromide assay conducted as described previously. After 48 hours of treatment with Paclitaxel or Doxorubicin alone or in the presence of 25 μM compound 29, 34, or 45 media was removed and cells were washed twice with phosphate buffered saline (PBS) and MTT assay was conducted 24 hours later. Data expressed as mean±SEM.

T1 sequence (P21447 whole entry C133A/C427A/C638A/C669A/C713A/C952A/C1070A/C1121A/C1223A): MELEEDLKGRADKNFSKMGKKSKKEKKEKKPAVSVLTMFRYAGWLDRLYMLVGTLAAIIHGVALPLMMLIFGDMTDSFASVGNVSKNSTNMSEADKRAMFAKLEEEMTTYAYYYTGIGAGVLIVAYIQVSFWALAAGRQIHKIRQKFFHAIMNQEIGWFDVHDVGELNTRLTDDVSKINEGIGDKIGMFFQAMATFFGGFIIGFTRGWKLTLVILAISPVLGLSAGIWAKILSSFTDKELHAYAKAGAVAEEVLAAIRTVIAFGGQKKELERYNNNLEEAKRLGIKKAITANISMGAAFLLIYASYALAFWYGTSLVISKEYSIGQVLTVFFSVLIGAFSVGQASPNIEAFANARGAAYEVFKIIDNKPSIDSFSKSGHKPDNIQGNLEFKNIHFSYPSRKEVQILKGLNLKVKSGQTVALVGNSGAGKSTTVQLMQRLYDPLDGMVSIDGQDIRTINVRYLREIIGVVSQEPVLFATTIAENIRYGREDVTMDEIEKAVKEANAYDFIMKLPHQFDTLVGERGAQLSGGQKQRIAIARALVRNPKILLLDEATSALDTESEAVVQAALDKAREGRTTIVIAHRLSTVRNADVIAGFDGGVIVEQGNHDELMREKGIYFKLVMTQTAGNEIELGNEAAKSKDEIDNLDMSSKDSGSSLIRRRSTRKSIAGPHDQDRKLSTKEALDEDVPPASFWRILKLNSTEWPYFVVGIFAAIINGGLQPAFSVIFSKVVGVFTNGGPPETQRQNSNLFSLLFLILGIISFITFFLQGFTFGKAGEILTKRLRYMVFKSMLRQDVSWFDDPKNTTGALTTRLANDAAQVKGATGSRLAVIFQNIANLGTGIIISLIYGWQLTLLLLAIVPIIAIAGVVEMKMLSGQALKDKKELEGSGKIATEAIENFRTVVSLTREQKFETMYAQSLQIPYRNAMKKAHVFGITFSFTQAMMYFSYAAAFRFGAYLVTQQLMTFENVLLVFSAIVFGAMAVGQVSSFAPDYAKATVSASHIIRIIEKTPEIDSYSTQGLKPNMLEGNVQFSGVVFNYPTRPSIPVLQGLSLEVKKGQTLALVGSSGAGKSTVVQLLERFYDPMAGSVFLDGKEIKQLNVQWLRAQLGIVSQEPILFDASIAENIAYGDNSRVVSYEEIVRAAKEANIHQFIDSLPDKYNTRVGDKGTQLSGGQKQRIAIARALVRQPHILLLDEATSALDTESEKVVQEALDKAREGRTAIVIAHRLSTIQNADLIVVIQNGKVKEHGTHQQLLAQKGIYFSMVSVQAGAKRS

| Effect on stimulated ATPase [4] | Effect on SL-ATP binding [6] | SMILES | Effect on SL-ANP binding [1] | Effect on paclitaxel sensitivity (DU145TXR [2]) | Effect on cell viability with paclitaxel (DU145TXR [3]; 5 μM and 10 μM compound) | EC50 (DU145TXR [2]; in the presence of 500 nM paclitaxel, 48 hours, read-out: PC50, potentiation concentration of inhibitor resulting in 50% reduction in cell viability) | IC50 (HFL1) | Sensitivity to doxorubicin (A2780) | Sensitization to paclitaxel (DU145TXR [3]; 25 μM compound) | IC50 (DU145TXR [5]) | IC50 (DU145) | Chemotherapeutic sensitivity of MDR cell line (Paclitaxel or Doxorubicin) (DU145-TxR) |
| --- | --- | --- | --- | --- | --- | --- | --- | --- | --- | --- | --- | --- |
|  |  | COC(=O)c1ccc(C(c2c(O)oc3ccccc3c2=O)c2c(O)oc3ccccc3c2=O)cc1 [SMU-19, methyl 4-[bis(2-hydroxy-4-oxochromen-3-yl)methyl]benzoate] | reduce the number of binding sites | no effect | no effect on cell viability |  |  |  |  |  |  |  |
| significantly inhibit | decreased the SL-ATP binding affinities | CCC(C(=O)N1CCN(c2ccc(OC)cc2)CC1)n1nc(C)c2sc3ccccc3c2c1=O (stereo not shown) [SMU-34, 2-[1-[4-(4-methoxyphenyl)piperazin-1-yl]-1-oxobutan-2-yl]-4-methyl-[1]benzothiolo[2,3-d]pyridazin-1-one] | reduce the number of binding sites | strongly affected the sensitivity |  | 0.57 ± 0.003 µM | 85.2 ± 0.04 µM | hyper-sensitized | 1200 fold | 200.3 ± 0.17 µM | 47.2 ± 0.02 µM | restores chemotherapeutic sensitivity |
|  |  | COc1ccc(CCN(C)CCCC(C#N)(c2ccc(OC)c(OC)c2)C(C)C)cc1OC (stereo not shown) [Verapamil, verapamil, reference compound] |  |  |  |  |  |  |  | 147.5 ± 0.1 µM | 74.5 ± 0.04 µM |  |
